The results in this text go back to patent US20250188075A1, “SUBSTITUTED HETEROCYCLIC CSNK1 INHIBITORS” (The Broad Institute, Inc., priority 2022, published 2025).

The target of one assay is human CSNK1G3 (Homo sapiens (Human), UniProt Q9Y6M4). Kind of assay: CSNK1G3 assay (ADP-Glo). It is filed as biochemical. The settings on record: median, read-out: CSNK1G IC50 [mol/l] (median). The protocol:
CSNK1G3-inhibitory activity of compounds of the present invention in presence of 1 μM adenosine-tri-phosphate (ATP) was quantified employing the CSNK1G3 assay as described in the following paragraphs. In essence, the enzyme activity is measured by quantification of the adenosine-di-phosphate (ADP), which is generated as a co-product of the enzyme reaction, via the “ADP-Glo™ Kinase Assay” kit from the company Promega. This detection system works as follows: In a first step the ATP not consumed in the kinase reaction is quantitatively converted to CAMP employing an adenylate cyclase (“ADP-Glo-reagent”), then the adenylate cyclase is stopped and the ADP generated in the kinase reaction converted to ATP which generates in a luciferase-based reaction a glow-luminescence signal (“Kinase Detection Reagent”).
Recombinant fusion protein of N-terminal Glutathion-S-Transferase (GST) and full-length human CSNK1G3, expressed by baculovirus infected insect cells and purified via Glutathion affinity chromatography, was purchased from Life Technologies (product no. PV3838) and used as enzyme. As substrate for the kinase reaction the biotinylated peptide biotin-Ahx-KRRRAL-pS-VASLPGL (C-terminus in amide form) was used which can be purchased e.g. from the company Biosyntan (Berlin-Buch, Germany).
For the assay 50 nl of a 100 fold concentrated solution of the test compound in DMSO was pipetted into a white 1536-well microtiter plate (Greiner Bio-One, Frickenhausen, Germany), 2 μL of a solution of CSNK1G3 in aqueous assay buffer [50 mM HEPES pH 7.5, 10% (v/v) glycerol, 10 mM MgCl2, 50 mM NaCl, 1 mM dithiothreitol, 0.01% (w/v) bovine serum albumin, 0.01% (v/v) Triton X-100] were added and the mixture was incubated for 15 min at 22° C. to allow pre-binding of the test compounds to the enzyme before the start of the kinase reaction. Then the kinase reaction was started by the addition of 3 μL of a solution of ATP ([…]=>final conc. in the 5 μL assay volume is 1 M) and peptide substrate (50 μM=>final conc. in the 5 μL assay volume is 30 μM) in assay buffer and the resulting mixture was incubated for a reaction time of 30 min at 22° C. The concentration of CSNK1G3 was adjusted depending of the activity of the enzyme lot and was chosen appropriate to have the assay in the linear range, a typical concentration is about 0.06 ng/μL. The reaction was stopped by the addition of 2.5 μL of “ADP-Glo-reagent” (1:1.5 fold diluted with water) and the resulting mixture was incubated at 22° C. for 1 h to convert the ATP not consumed in the kinase reaction completely to CAMP. Subsequently 2.5 μL of the “kinase detection reagent” (1.2 fold more concentrated than recommended by the producer) were added, the resulting mixture was incubated at 22° C. for 1 h and then the luminescence measured with a suitable measurement instrument (e.g. Viewlux™ from Perkin-Elmer). The amount of emitted light was taken as a measure for the amount of ADP generated and thereby for the activity of the CSNK1G3.
The data were normalised (enzyme reaction without inhibitor=0% inhibition, all other assay components but no enzyme=100% inhibition).
(ADP-Glo turns the ADP formed in a reaction into a luminescent signal.)

For a further assay, the system named is total-p53 in MCF-7 cells. Kind of assay: HTRF total-p53 in MCF-7 cells. It is filed as cell-based. The settings on record: median, read-out: HTRF total-p53 MCF-7, IC50 - [mol/l] (median). As to the method: Day 1: MCF-7 cells were seeded (10,000 cells in 12 μl/well) in a 384-well-Small Volume-plate (Greiner Bio One #784075) in culture medium (RPMI 1640; (Biochrom; #F 1275; without PhenolRed)+FCS (final: 10%); (Biochrom; #S 0415)+Insulin (bovine); (final: 10 μg/mL, Biochrom; #K 3510)+L-Alanyl-L-Glutamine; (final: 2 mM, Biochrom; #K 0302)+Natriumpyruvat; (final: 1 mM, Biochrom; #L 0473)+Non Essentiell Amino Acids; (final: 1×, Biochrom; #K 0293)). The cells were then treated with different compounds or DMSO (added with the HP Dispenser) and incubated for 2 h at 37° C. Following incubation, the cells were lysed in 4 μl of lysis buffer for 1 h shaking at RT. Finally, 4 μl of antibody solution was added and the samples are incubated overnight at RT, shaking.
Total-p53 was detected in a sandwich assay format using 2 different specific antibodies, one labeled with Eu3+-Cryptate (donor) and the second with d2 (acceptor). Kit: HTRF total p53 detection assay (Cisbio Cat: 64T53PEG).
Day 2: the plate was read on PHERAstar FS (BMG Labtech settings; optic module: HTRF; integration start: 60 us; integration time: 400 μs; flash lamp). IC50 values were calculated using the DRC application in ShiNy Analysis Platform-SNAP.”

The mark [1] stands for this setting: Homo sapiens, MCF7, 2 h incubation.

Where two headings read alike, the source gives them in different places.

Chain of human CSNK1G3 (Q9Y6M4 whole entry): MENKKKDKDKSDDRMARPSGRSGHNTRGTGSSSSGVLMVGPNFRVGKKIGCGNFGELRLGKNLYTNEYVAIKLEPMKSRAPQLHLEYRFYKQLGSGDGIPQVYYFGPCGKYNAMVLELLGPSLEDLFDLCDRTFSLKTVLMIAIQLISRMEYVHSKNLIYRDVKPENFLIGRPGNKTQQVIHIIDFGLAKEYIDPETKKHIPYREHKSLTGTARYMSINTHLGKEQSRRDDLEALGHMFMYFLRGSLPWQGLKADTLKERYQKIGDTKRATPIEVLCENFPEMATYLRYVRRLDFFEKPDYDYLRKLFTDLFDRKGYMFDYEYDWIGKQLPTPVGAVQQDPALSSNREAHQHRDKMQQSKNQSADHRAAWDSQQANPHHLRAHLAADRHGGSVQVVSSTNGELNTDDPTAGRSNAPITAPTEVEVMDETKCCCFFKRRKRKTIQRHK

With `Cc1nc(CC(=O)Nc2cc(-c3[nH]c4cccnc4c3-c3ccccn3)ccn2)co1` [Example 25, 2-(2-methyloxazol-4-yl)-N-[4-[3-(2-pyridyl)-^1H-pyrrolo[3,2-b]pyridin-2-yl]-2-pyridyl]acetamide], the figures for the IC50 on human CSNK1G3 and with total-p53 in MCF-7 cells (setting [1]) were 64.4 nM and 321 nM, respectively.

`Cc1cc(CC(=O)Nc2cc(-c3[nH]c4cccnc4c3-c3ccccn3)ccn2)no1` [Example 26, 2-(5-methylisoxazol-3-yl)-N-[4-[3-(2-pyridyl)-^1H-pyrrolo[3,2-b]pyridin-2-yl]-2-pyridyl]acetamide]: the IC50 is 26.5 nM on human CSNK1G3 and 176 nM in the assay with total-p53 in MCF-7 cells (setting [1]).

In the case of `O=C(Cc1cc(C2CC2)on1)Nc1cc(-c2[nH]c3cccnc3c2-c2ccccn2)ccn1` [Example 27, 2-(5-cyclopropylisoxazol-3-yl)-N-[4-[3-(2-pyridyl)-^1H-pyrrolo[3,2-b]pyridin-2-yl]-2-pyridyl]acetamide], the figures for the IC50 at human CSNK1G3 and in the assay on total-p53 in MCF-7 cells (setting [1]) were 19.7 nM and 169 nM, respectively.

For `CC(C)n1ccc(CC(=O)Nc2cc(-c3[nH]c4cccnc4c3-c3ccccn3)ccn2)n1` [Example 28, 2-(1-isopropylpyrazol-3-yl)-N-[4-[3-(2-pyridyl)-^1H-pyrrolo[3,2-b]pyridin-2-yl]-2-pyridyl]acetamide], the results for the IC50 at human CSNK1G3 and in the assay on total-p53 in MCF-7 cells (setting [1]) were 20.4 nM and 129 nM, respectively.

With `Cn1nc(CC(=O)Nc2cc(-c3[nH]c4cccnc4c3-c3ccccn3)ccn2)cc1C1CC1` [Example 29, 2-(5-cyclopropyl-1-methyl-pyrazol-3-yl)-N-[4-[3-(2-pyridyl)-^1H-pyrrolo[3,2-b]pyridin-2-yl]-2-pyridyl]acetamide], the IC50 on human CSNK1G3 stood at 27.4 nM; in the assay on total-p53 in MCF-7 cells (setting [1]), 199 nM.

Take `Cc1nocc1CC(=O)Nc1cc(-c2[nH]c3cccnc3c2-c2ccccn2)ccn1` [Example 30, 2-(3-methylisoxazol-4-yl)-N-[4-[3-(2-pyridyl)-^1H-pyrrolo[3,2-b]pyridin-2-yl]-2-pyridyl]acetamide]: the IC50 at human CSNK1G3 was determined as 68.9 nM; in the assay with total-p53 in MCF-7 cells (setting [1]), 226 nM.

As for `O=C(Nc1cc(-c2[nH]c3nccnc3c2-c2ccccn2)ccn1)[C@@H](CC(F)F)c1ccc(F)cc1` [Example C1, reference compound], the IC50 at human CSNK1G3 turned out to be 6.54 nM; in the assay with total-p53 in MCF-7 cells (2 h incubation) it was 72.8 nM.

With `O=C(Nc1cc(-c2[nH]c3ccc(F)nc3c2-c2ccccn2)ccn1)[C@@H](CC(F)F)c1ccc(F)cc1` [Example C2, reference compound], the IC50 amounted to 2.4 nM on human CSNK1G3 and 72.4 nM in the assay on total-p53 in MCF-7 cells (2 h incubation).

For the molecule `O=C(Nc1cc(-c2[nH]c3c(OCC(F)F)ncnc3c2-c2ccccn2)ccn1)[C@@H](CC(F)F)c1ccc(F)cc1` [Example C3, reference compound], the IC50 at human CSNK1G3 stood at 6.22 nM; with total-p53 in MCF-7 cells (2 h incubation) it was 97.9 nM.
